From patent publication US5196410A, “Transdermal flux enhancing compositions” (priority 1991, dated 1993)
≈ marks a conversion by molar mass, not a printed value. Counter-ions that a name gives are not always drawn. Like-named read-outs stand apart in the source and are kept apart here.

Assays:
[1] = cited from earlier work
[2] = type: in vitro ADME, porcine
Experimental: Samples were removed periodically from the receiver side of the diffusion cell, mixed with a Z0 scintillation cocktail (Scintisol, Isolabs, Inc., Akron, OH) and counted for several minutes in a liquid scintillation counter (Model Mark III-6881, Tracor Analytical, Elk Grove Village, IL). Following an initial lag time of about 6 hours, the amount of
salicylic acid appearing in the receiver side was linear with time for the duration of the experiment (routinely 24 to 48 hours). […] This value, when divided by the specific acitivity of salicyclic acid in the saturated solution (approximately 300 dpm/mg) and the area of exposed skin (0.2 cm^2), yielded the flux (mg/cm^2/ hr). Samples removed from the donor side at the beginning and end of the experiment contained, within error, the same amount of salicylic acid. Thus, constant concentration of the permeant was maintained on the donor side throughout the experiment.

[3] = Infrared spectra of fatty acid treated porcine stratum corneum; settings: C-H antisymmetric stretching, stratum corneum treated with […] fatty acid in ethanol, 30% (w/w) water
Experimental: (§1) Stratum corneum sheets were prepared from porcine skin by trypsin treatment. Thus, full thickness porcine skin samples were dermatomed to 350 μm thickness and spread, stratum corneum side up, on filter paper saturated with 0.5% crude trypsin in phosphate buffered saline at pH 7.4 (Sorensen's buffer). After several hours at 37° C. the stratum corneum was peeled away, washed in soybean trypsin inhibitor, water and air dried. Samples were stored desiccated at room temperature until used. Prior to use, dry skin samples of known weight were incubated for two hours in an 0.15M solution of the appropriate fatty acid in ethanol, the samples were then washed for ten seconds in ethanol, spread on wire mesh, dried over a desiccant and the dry sample reweighed. The stratum corneum samples were then held for several days in a chamber at 22° C., 95% relative humidity, during which the stratum corneum samples equilibrated to a water content of 30% (w/w).
Infrared spectra were obtained with a Fourier Transform Infrared Spectrometer^4 (FTIR) equipped with a liquid nitrogen cooled mercury-cadmium telluride detector. In order to prevent water loss, hydrated samples were sealed between zinc sulfide windows while maintained at 22° C., 95% relative humidity. Sealed samples were placed in the spectrometer where an average of 127 scans were obtained in about six minutes for each of the fatty acid treatments. The digitized data were transferred to a computer (Apple IIe) for determination of frequency and bandwidth of the C--H antisymmetric stretching absorbance. Due to the digital nature of the FTIR instrument, absorbance and frequency data exist only in discrete increments. With the instrument used, the exact value of any frequency point could only be determined with a precision not greater than 2.7 cm^-1. The peak frequency was estimated with much greater precision, however, using a center of gravity algorithm for digitized data reported by Cameron et al., Applied Spectr., 36 245-250 (1982).

[4] = Differential scanning calorimetry of fatty acid treated porcine stratum corneum; settings: stratum corneum treated with […] fatty acid in ethanol, 30% (w/w) water
Experimental: as §1
The differential scanning calorimeter^5 was used at a scan rate of 0.75° C./minute. Duplicate samples from each of the above FTIR experiments were combined for DSC measurements. Alternately, stratum corneum samples of known weight (about 20 mg) were treated with each fatty acid in the same manner described above. Treated samples were hydrated for several days at 95% R.H., 22° C. and reweighed.

[5] = Saturation concentration of drug in vehicle
[6] = saturated salicylic acid in ethanol with […] of the fatty acid, 32° C.

For `CCCCCCCCCCCCN1CCCCCC1=O` [Azone, 1-dodecylazacycloheptan-2-one], the “ability to enhance percutaneous penetration” value ([1]; Stoughton, Arch. Derm.) is listed as “ability to enhance percutaneous penetration” and the “enhancement of dermal penetration” value ([1]; flurbiprofen in propylene glycol and other solvents) is listed as “enhance dermal penetration”.
With `CCCCCCCCCCC/C=C/CCCCC(=O)O` [Petroseladic] the “Flux of Salicylic Acid” value [2] was 0.97 mg/cm^2 /hr, the “Peak IR Frequency” value [3] was 2919.0 cm⁻¹ and the “DSC Tm (temperature of the transition maximum)” value (from here on “DSC Tm”) [4] was 62.0 °C.
With `CCCCCCCCCCC/C=C\CCCCC(=O)O` [Petroselenic] the “Flux of Salicylic Acid” value [2] was 0.79 mg/cm^2 /hr, the “Peak IR Frequency” value [3] was 2919.0 cm⁻¹ and the “DSC Tm” value [4] was 60.5 °C.
For `O=C(O)c1ccccc1O` [Salicylic acid, salicylic acid], the solubility ([5]; ethanol, organic solvent or mixture) was 310 mg/mL (≈ 2240 mM), the initial lag time ([2]; salicylic acid in receiver, 32° C.) was “about 6 hours” and the “Flux of Salicylic Acid” value ([2]; saturated salicylic acid in ethanol, no fatty acid (ethanol control), 32° C.) was 1.31 mg/cm^2 /hr.
For `CCCCCCCCCCCCCCCCCC(=O)O` [Stearic, stearic acid], the “Flux of Salicylic Acid” value [2, 6] was 1.21 mg/cm^2 /hr, the “Peak IR Frequency” value [3] was 2918.0 ± 0.4 cm⁻¹ and the “Peak IR Frequency” value ([3]; listed as stearic acid) was 2918 to 2919 cm⁻¹. The “DSC Tm” value [4] was 62.5 ± 1.0 °C.
Molecule `COc1cc2nc(N3CCN(C(=O)C4COc5ccccc5O4)CC3)nc(N)c2cc1OC` (stereo not shown) [doxazosin mesylate] has a solubility ([5]; 30% ethanol/acetate buffer, pH 5, organic solvent or mixture) of 8.95 mg/mL.
For `CCCCCC/C=C/CCCCCCCCCC(=O)O` [trans-vaccenic, trans-vaccenic acid], the “Flux of Salicylic Acid” value [2, 6] was 1.11 mg/cm^2 /hr, the Peak IR Frequency [3] was 2920 cm⁻¹ and the “DSC Tm” value [4] was 61.0 °C.
